29 molecules from ChEMBL document CHEMBL1156212, “Curcumin derivatives inhibit testicular 17beta-hydroxysteroid dehydrogenase 3” (Bioorg Med Chem Lett, 2010) can be followed below.

Experiment [1] concerns the target T1, 17-beta-hydroxysteroid dehydrogenase type 3 (Rattus norvegicus) (UniProt O54939).
T1 sequence (whole entry): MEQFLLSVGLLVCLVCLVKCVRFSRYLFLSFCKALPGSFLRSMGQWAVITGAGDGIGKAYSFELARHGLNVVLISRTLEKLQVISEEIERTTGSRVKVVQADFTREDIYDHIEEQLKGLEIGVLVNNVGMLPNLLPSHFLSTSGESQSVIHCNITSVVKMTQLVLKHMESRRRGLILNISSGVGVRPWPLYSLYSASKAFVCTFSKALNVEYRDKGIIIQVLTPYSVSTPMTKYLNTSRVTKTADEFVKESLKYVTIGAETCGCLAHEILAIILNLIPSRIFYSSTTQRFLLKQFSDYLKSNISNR
Kind of experiment: Inhibition of 17beta-HSD3 in Sprague-Dawley rat testis microsomes at 100 uM.

For experiment [2], the target named is T2, 17-beta-hydroxysteroid dehydrogenase type 3 (Homo sapiens) (UniProt P37058).
T2 sequence (whole entry): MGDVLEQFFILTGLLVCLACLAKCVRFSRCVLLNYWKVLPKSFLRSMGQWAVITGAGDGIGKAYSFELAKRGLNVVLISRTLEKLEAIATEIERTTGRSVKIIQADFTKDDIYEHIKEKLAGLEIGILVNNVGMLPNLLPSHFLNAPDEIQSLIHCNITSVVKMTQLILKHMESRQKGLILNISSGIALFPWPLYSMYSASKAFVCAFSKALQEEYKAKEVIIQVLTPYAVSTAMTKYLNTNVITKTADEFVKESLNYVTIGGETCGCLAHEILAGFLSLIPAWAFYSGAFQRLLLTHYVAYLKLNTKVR
The experiment in a line: Inhibition of 17beta-HSD3 in human testis microsomes at 100 uM.

For experiment [3], the target named is T1, 17-beta-hydroxysteroid dehydrogenase type 3 (Rattus norvegicus). Kind of experiment: Inhibition of 17beta-HSD3 in Sprague-Dawley rat laydig cells at 100 uM.
Experiment [4] addresses T3, 17-beta-hydroxysteroid dehydrogenase type 3 (Rattus norvegicus, UniProt O54939).
T3 sequence (O54939 whole entry): T1 sequence (whole entry)
The experiment in a line: Inhibition of 17beta-HSD3 in Sprague-Dawley rat testis microsomes.

Experiment [5] concerns the target T4, 17-beta-hydroxysteroid dehydrogenase type 3 (Homo sapiens, UniProt P37058).
T4 sequence (P37058 whole entry): T2 sequence (whole entry)
The experiment in a line: Inhibition of 17beta-HSD3 in human testis microsomes.

In experiment [6] the target is T3, 17-beta-hydroxysteroid dehydrogenase type 3. Kind of experiment: Inhibition of 17beta-HSD3 in Sprague-Dawley rat laydig cells.
A short description of experiment [7]: Inhibition of LH-stimulated testosterone production in Sprague-Dawley rat leydig cells at 10 uM after 18 hrs by tritium based radio immuno assay relative to control. The experiment is classed as functional. The note with it: read-out: INH.
Experiment [8] has as its target T1, 17-beta-hydroxysteroid dehydrogenase type 3 (Rattus norvegicus). Kind of experiment: Uncompetitive inhibition of 17beta-HSD3 in Sprague-Dawley rat testis microsomes at 1 to 10 uM by Lineweaver-Burke plot analysis. The note with it: Microsome.
Experiment [9] has as its target T2, 17-beta-hydroxysteroid dehydrogenase type 3 (Homo sapiens). The following applies: Testis, Microsomes, 1 to 10 uM.
Description: Uncompetitive inhibition of 17beta-HSD3 in human testis microsomes at 1 to 10 uM by Lineweaver-Burke plot analysis
Experiment [10] deals with T4, 17-beta-hydroxysteroid dehydrogenase type 3. Kind of experiment: Inhibition of 17beta-HSD3.

Active and inactive are the calls of the source. The calls are words filed in the database; no cut-off is given here.

Consider `COc1cc(/C=C2\CC/C(=C\c3ccc(OC4CCCOC4)c(OC)c3)C2=O)ccc1OC1CCCOC1` (stereo unspecified), for which the inhibition entry in experiment [1], in experiment [2] and in experiment [3] was “inactive” in each case.
The IC50 is the concentration that inhibits the measured activity by half. Read a high IC50 as lower potency. `O=C(/C=C/c1cccc(Br)c1)/C=C/c1cccc(Br)c1`: the results for the IC50 in [4] and in experiment [5] were 8500 nM and 2700 nM, respectively. Further, in experiment [3], the inhibition was 20%.
The molecule `CN(C)c1ccc(/C=C/C(=O)/C=C/c2ccc(N(C)C)cc2)cc1` had an inhibition in experiment [1] of 15%. The IC50 in [5] came out at 2400 nM. Besides, the inhibition entry in experiment [3] was “inactive”.
Take `COc1cc(/C=C2\CCC/C(=C\c3cc(OC)c(OC)c(OC)c3)C2=O)cc(OC)c1OC`: the half-maximal inhibitory concentration (IC50) in experiment [6] was > 100000 nM; in experiment [4] it was 1800 nM; in [5], 100 nM.
Take `COc1cc(/C=C/C(=O)CC(=O)/C=C/c2ccc(O)c(OC)c2)ccc1O` [CURCUMIN]: the inhibition at 10 µM in experiment [7] is 64%. Also, the inhibition entry in experiment [8] and in [9] was “Active” throughout. The IC50 in experiment [6] was determined as 9000 nM; in experiment [4] it was 2300 nM; in experiment [5] it was 67300 nM.
With `COc1cc(/C=C/C(=O)/C=C/c2ccc(OC3CCCOC3)c(OC)c2)ccc1OC1CCCOC1` (stereo unspecified), the inhibition worked out at 35% in [1] and 20% in [2]. For the same molecule, the inhibition result in experiment [3] was “inactive”.
Taken in the same sequence, the figures for `O=C1/C(=C/c2ccc(OC3CCCOC3)cc2)CCC/C1=C\c1ccc(OC2CCCOC2)cc1` (stereo unspecified) were 21%, “inactive” and 16%.
With `COc1cc(/C=C/C(=O)/C=C/c2cc(OC)c(OC)c(OC)c2)cc(OC)c1OC`, the inhibition result in [1], in [2] and in experiment [3] was “inactive” throughout.
For `CCOc1ccc(/C=C2\CC/C(=C\c3ccc(OCC)cc3)C2=O)cc1`, the inhibition entry in [1] and in [2] was “inactive” each time. In experiment [3], this molecule returned an inhibition of 14%.
For the molecule `COc1cc(/C=C2\CC/C(=C\c3ccc(OCCCN(C)C)c(OC)c3)C2=O)ccc1OCCCN(C)C`, the inhibition was determined as 32% in [1], 28% in experiment [2] and 38% in experiment [3].
With `O=C(/C=C/c1ccc(OC2CCCOC2)cc1)/C=C/c1ccc(OC2CCCOC2)cc1` (stereo unspecified), the IC50 in experiment [6] is 1300 nM. For the same molecule, the inhibition worked out at 29% in experiment [1] and 22% in experiment [2].
In the case of `CN(C)c1ccc(/C=C2\CCC/C(=C\c3ccc(N(C)C)cc3)C2=O)cc1`, the inhibition in [1] stood at 10%; in [2], 17%; in [3], 12%.
Consider `CCOc1ccc(/C=C/C(=O)/C=C/c2ccc(OCC)cc2)cc1`, for which the midpoint of inhibition in [6], the IC50, lay at 70 nM. Further, the inhibition in experiment [1] and in experiment [2] was 16% throughout.
For `O=C1/C(=C/c2ccc(O)cc2)CCC/C1=C\c1ccc(O)cc1`, the results for the inhibition in experiment [1], in [2] and in experiment [3] were 34%, 38% and 13%, respectively.
Taken in the same sequence, the figures for `COc1cc(/C=C2\CC/C(=C\c3cc(OC)c(OC)c(OC)c3)C2=O)cc(OC)c1OC` were “inactive”, “inactive” and 11%.
The corresponding values for `O=C1/C(=C/c2cccc(C(F)(F)F)c2F)CC/C1=C\c1cccc(C(F)(F)F)c1F` are 23%, “inactive” and “inactive”.
Consider `O=C1/C(=C/c2cccc(Br)c2)CC/C1=C\c1cccc(Br)c1`, for which the inhibition in [2] is 14%; in experiment [3], 30%. This molecule also returned an IC50 in experiment [4] of 700 nM.
Take `C[C@]12CC[C@H](OCCc3ccccc3)CC1CC[C@@H]1[C@@H]2CC[C@]2(C)C(=O)CC[C@@H]12` (stereo partly specified): half-maximal inhibition in [10] (IC50) required 57 nM.
Turning to `O=C(/C=C/c1ccc(F)cc1)/C=C/c1ccc(F)cc1`, the results for the IC50 in [6] and in experiment [4] were 100 nM and 3300 nM, respectively. The molecule also registered an inhibition in experiment [2] of 39%.
Take `O=C(/C=C/c1ccc(O)cc1)/C=C/c1ccc(O)cc1`: the inhibition stood at 33% in experiment [1], 46% in experiment [2] and 30% in [3].
Taken in the same sequence, the figures for `O=C1/C(=C/c2ccc(OC3CCCOC3)cc2)CC/C1=C\c1ccc(OC2CCCOC2)cc1` (stereo unspecified) were 13%, “inactive” and “inactive”.
With `O=C1/C(=C/c2ccc(F)cc2)CC/C1=C\c1ccc(F)cc1`, the inhibition in experiment [1] came out at 15%; in [2] it was 11%; in experiment [3], 14%.
The corresponding values for `O=C1/C(=C/c2ccc(O)cc2)CC/C1=C\c1ccc(O)cc1` are 15%, 28% and 18%.
Taken in the same sequence, the figures for `COc1cc(/C=C2\CCC/C(=C\c3ccc(OC4CCCOC4)c(OC)c3)C2=O)ccc1OC1CCCOC1` (stereo unspecified) were 27%, “inactive” and 26%.
Taken in the same sequence, the figures for `CN(C)c1ccc(/C=C2\CC/C(=C\c3ccc(N(C)C)cc3)C2=O)cc1` were “inactive”, “inactive” and “inactive”.
As to `O=C1/C(=C/c2ccc(F)cc2)CCC/C1=C\c1ccc(F)cc1`, the inhibition entry in experiment [1], in [2] and in [3] was “inactive” each time.
Take `CCOc1ccc(/C=C2\CCC/C(=C\c3ccc(OCC)cc3)C2=O)cc1`: the values for the inhibition in experiment [1] and in experiment [2] were 16% and 13%, respectively. Moreover, the inhibition entry in experiment [3] is “inactive”.
The molecule `O=C1C=CC(=O)C(c2ccc(-c3ccccc3)cc2)=C1` yielded an IC50 in [5] of 2700 nM.
Consider `O=C1/C(=C/c2cccc(Br)c2)CCC/C1=C\c1cccc(Br)c1`, for which the inhibition in experiment [1] was 40%; in experiment [2], 15%; in experiment [3], 25%.
